Measurements from patent publication US20230047208A1, “RNA Splicing Modulation” (The General Hospital Corporation, priority 2020, published 2023).

Assays:
[1] = Tolerability and weight assessment of TgFD9 mice; format: in vivo; settings: oral gavage once daily for 7 days, 10, 30, 60 or 100 mg/kg
Experimental: (§1) FIGS. 7C-E show the relative expression of full-length (FL) and Δ20 ELP1 mRNA (left graphs), and ELP1 protein quantification (right graphs) in kidney (FIG. 7C), heart (FIG. 7D) and skin (FIG. 7E) after oral doses of Compound (I) ranging from 10 to 100 mg/kg in adult transgenic TgFD9 mouse (n=4-6 mice in each treatment group). Comparisons were done within the same group, against the vehicle-treated mice. […] The levels of compound were measured using mass spectrometry. In the figure, *p<0.05; **p<0.01; ***p<0.001.
Compound (I) was evaluated in vivo to determine whether splicing correction can lead to a concomitant increase in ELP1 protein. In brief, TgFD9 transgenic mice, which carry the human ELP1 gene with a Exon 20 splice mutation, were treated by oral gavage once daily for 7 days with Compound (I) as a suspension in 0.5% HPMC, 0.1% Tween 80 at a dose of 10, 30, 60 or 100 mg/kg. The mice used for this study were housed in an animal facility, provided with access to food and water ad libitum, and maintained on a 12-hour light/dark cycle. For routine genotyping, genomic DNA was prepared from tail biopsies and PCR was carried out to detect the TgFD9 transgene using the following primers—forward 5′-[…]-3′; reverse, 5′-[…]-3′. Mice were sacrificed 1 hour after the last dose.
The level of splicing correction correlated with Compound (I) tissue distribution (FIGS. 7F-7G).

[2] = system: human ELP1 gene with a Exon 20 splice mutation; assay: In vivo full-length and Δ20 ELP1 mRNA by RT-qPCR in TgFD9 mice; parameters: species or system TgFD9 transgenic mice; settings: oral gavage once daily for 7 days, 10, 30, 60 or 100 mg/kg
Experimental: FIGS. 7A-7G show the relative expression of full-length (FL) and Δ20 ELP1 mRNA (left panel), and ELP1 protein quantification (right panel) in brain (FIG. 7A) and liver (FIG. 7B) after oral doses of Compound (I) ranging from 10 to 100 mg/kg in adult transgenic TgFD9 mouse (n=4-6 mice in each treatment group). Comparisons were done within the same group, against the vehicle-treated mice. In the figure, *p<0.05; **p<0.01; ***p<0.001.
as §1, with “group).” for “group). Comparisons were done within the same group, against the vehicle-treated mice.”, “In the figure, *p<0.05; **p<0.01; ***p<0.001.” left out
Compound (I) was evaluated in vivo to determine whether splicing correction can lead to a concomitant increase in ELP1 protein. […]
Brain, liver, lung, kidney, heart and skin tissues were removed and snap frozen in liquid nitrogen. […] The yield, purity and quality of the total RNA for each sample were determined using a Nanodrop ND-1000 spectrophotometer. Full-length and mutant ELP1 mRNA expression was quantified by quantitative real-time PCR (qRT-PCR) analysis using CFX384 Touch Real-Time PCR Detection System (BioRad). […] Data were analyzed using SDS software.

[3] = system: CFTR gene c.2988G>A, exon 18; assay: CFTR c.2988G>A minigene (EMG-MUT) exon 18 splicing in HEK293 cells, RT-PCR; format: cell-based; settings: 60 μM, 24 hours
Description: FIGS. 4C-4F Upper row: The sequences at the 5′ splice site of Exon X in patient cells and minigene constructs are shown (FIGS. 4C-4F). The sequences around the 5′ splice site of Exon X are shown in LOGO plots, with the closely matched CNN motifs indicated beneath the plots. […] Middle row: RT-PCR experiments validated treatment responses in patient cell lines carrying specific splice site mutations. The upper bands indicate the isoform in which the middle Exon X is included while the lower bands indicate the isoform in which the middle Exon X is skipped. Each set of gels is one of the triplicates used to generate the bar plots beneath. […] The statistical significance, as shown in FIGS. 4C-4F, was determined via two-tailed, unpaired Student's test: *p<0.05; **p<0.01; ***p<0.001.
In another example from Table 18, the ClinVar and CNN model predictions related to the CFTR gene carrying a c.2988G>A mutation (see FIG. 4D) were confirmed by stably expressing a minigene containing the full length CFTR coding sequence carrying the c.2988G>A mutation and flanking introns (EMG-MUT)^63 in HEK293 cells. The c.2988G>A mutation was reported to cause skipping of exon 18 in the CFTR gene and is associated with abnormal CFTR function and a mild form of Cystic Fibrosis^64. Using RT-PCR, the minigene was confirmed to harbor the mutation (EMG-MUT), showing only 5% exon 18 inclusion.

Clc1nc(NCc2ccncc2)c2cc[nH]c2n1 [Compound (I), 2-chloro-N-(pyridin-4-ylmethyl)-7H-pyrrolo[2,3-d]pyrimidin-4-amine]
tolerability, weight loss, adverse effects [1]: well tolerated with no weight loss or adverse effects observed | full-length ELP1 transcript [2]: increased full-length ELP1 transcript in a dose-dependent manner | exon 18 inclusion in EMG-MUT [3]: significantly increased exon inclusion
